Test results as given in the supplement of paper PMC10627819.

System: S. aureus DSM 20231
Experiment: Bliss interaction score (quartile over a dose matrix) (fitness difference); higher = more antagonism (negative = synergy)
In short: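 Fitness was defined as normalised growth: OD595 at the start of stationary phase divided by the plate's robust no-drug mean and capped at 1. Single-drug fitness was inferred from combination measurements. The Bliss score is observed fitness minus the product of the single-drug values, summarised by quartiles across technical, biological and donor/recipient replicates.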
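Note: first quartile when negative (synergy) and third quartile when positive (antagonism).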

Row | SMILES | Bliss interaction score
1 | CCC[C@@H]1C[C@@H](C(=O)N[C@@H]([C@H]2O[C@H](SC)[C@H](O)[C@@H](O)[C@H]2O)[C@H](C)Cl)N(C)C1 [Clindamycin] + Cc1ccc(C(C)C)c(O)c1 [Thymol] | -0.271
2 | COc1c(N2C[C@@H]3CCCN[C@@H]3C2)c(F)cc2c(=O)c(C(=O)O)cn(C3CC3)c12 [Moxifloxacin] + Cc1c(Cl)cccc1Nc1ccccc1C(=O)O [Tolfenamic] | -0.12
3 | CCC[C@@H]1C[C@@H](C(=O)N[C@@H]([C@H]2O[C@H](SC)[C@H](O)[C@@H](O)[C@H]2O)[C@@H](C)O)N(C)C1 [Lincomycin] + C[C@H]1C[C@@H]2[C@H]([C@@H](O)C[C@@]3(C)[C@H]2CC[C@]3(O)C(=O)CO)[C@@]2(C)C=CC(=O)C=C12 [Methylprednisolone] | -0.248
4 | O=C(O[C@@H]1Cc2c(O)cc(O)cc2O[C@@H]1c1cc(O)c(O)c(O)c1)c1cc(O)c(O)c(O)c1 [EGCG] + CN1CCC[C@H]1c1cccnc1 [Nicotine] | -0.157
5 | CC[C@H]1OC(=O)[C@H](C)[C@@H](O[C@H]2C[C@@](C)(OC)[C@@H](O)[C@H](C)O2)[C@H](C)[C@@H](O[C@@H]2O[C@H](C)C[C@H](N(C)C)[C@H]2O)[C@](C)(OC)C[C@@H](C)C(=O)[C@H](C)[C@@H](O)[C@]1(C)O [Clarithromycin] + CC(C)Cc1ccc(C(C)C(=O)O)cc1 [Ibuprofen] | -0.171
6 | CCc1oc2ccccc2c1C(=O)c1cc(Br)c(O)c(Br)c1 [Benzbromarone] + N[C@@H]1CONC1=O [CycloserineD] | -0.109
7 | O=C(N[C@H](CO)[C@H](O)c1ccc([N+](=O)[O-])cc1)C(Cl)Cl [Chloramphenicol] + C[C@H]1C[C@@H]2[C@H]([C@@H](O)C[C@@]3(C)[C@H]2CC[C@]3(O)C(=O)CO)[C@@]2(C)C=CC(=O)C=C12 [Methylprednisolone] | -0.204
8 | CCN(CC)CCOc1ccc(C(=C(Cl)c2ccccc2)c2ccccc2)cc1 [Clomiphene] + COc1cc(Cc2cnc(N)nc2N)cc(OC)c1OC [Trimethoprim] | 0.216
9 | CCC[C@@H]1C[C@@H](C(=O)N[C@@H]([C@H]2O[C@H](SC)[C@H](O)[C@@H](O)[C@H]2O)[C@@H](C)O)N(C)C1 [Lincomycin] + Cc1cccc(CN2CCN(C(c3ccccc3)c3ccc(Cl)cc3)CC2)c1 [Meclizine] | 0.278
10 | CC[C@H]1OC(=O)[C@H](C)[C@@H](O[C@H]2C[C@@](C)(OC)[C@@H](O)[C@H](C)O2)[C@H](C)[C@@H](O[C@@H]2O[C@H](C)C[C@H](N(C)C)[C@H]2O)[C@](C)(OC)C[C@@H](C)C(=O)[C@H](C)[C@@H](O)[C@]1(C)O [Clarithromycin] + C[C@H]1C[C@@H]2[C@H]([C@@H](O)C[C@@]3(C)[C@H]2CC[C@]3(O)C(=O)CO)[C@@]2(C)C=CC(=O)C=C12 [Methylprednisolone] | -0.275
11 | CCC[C@@H]1C[C@@H](C(=O)N[C@@H]([C@H]2O[C@H](SC)[C@H](O)[C@@H](O)[C@H]2O)[C@@H](C)O)N(C)C1 [Lincomycin] + CC(C)(O)c1ccccc1CC[C@@H](SCC1(CC(=O)O)CC1)c1cccc(/C=C/c2ccc3ccc(Cl)cc3n2)c1 [Montelukast] | -0.268
12 | CCc1oc2ccccc2c1C(=O)c1cc(Br)c(O)c(Br)c1 [Benzbromarone] + O=C(O[C@@H]1Cc2c(O)cc(O)cc2O[C@@H]1c1cc(O)c(O)c(O)c1)c1cc(O)c(O)c(O)c1 [EGCG] | -0.139
13 | CC(=O)O[C@H]1C[C@@]2(C)[C@@H](C[C@@H](O)[C@H]3[C@@]4(C)CC[C@@H](O)[C@@H](C)[C@@H]4CC[C@@]32C)/C1=C(\CCC=C(C)C)C(=O)O [Fusidic acid] + Cc1c(Cl)cccc1Nc1ccccc1C(=O)O [Tolfenamic] | 0.16
14 | O=C(N[C@H](CO)[C@H](O)c1ccc([N+](=O)[O-])cc1)C(Cl)Cl [Chloramphenicol] + CC(=O)Oc1cccc2c1C(=O)c1c(OC(C)=O)cc(C(=O)O)cc1C2=O [Diacerein] | -0.41
15 | CCC[C@@H]1C[C@@H](C(=O)N[C@@H]([C@H]2O[C@H](SC)[C@H](O)[C@@H](O)[C@H]2O)[C@H](C)Cl)N(C)C1 [Clindamycin] + Cc1c(Cl)cccc1Nc1ccccc1C(=O)O [Tolfenamic] | -0.169
